ChEMBL document CHEMBL4339185 (Eur J Med Chem, 2019)
≈ marks a conversion by molar mass, not a printed value.

Tests used:
Staphylococcus aureus [1] = assay: Antimicrobial activity against methicillin-resistant Staphylococcus aureus incubated for 18 hrs by serial microdilution method; format: functional
Staphylococcus aureus [2] = assay: Antimicrobial activity against Staphylococcus aureus ATCC 6538 incubated for 18 hrs by serial microdilution method; format: functional; details: ATCC 6538, 18 h
Staphylococcus aureus [3] = assay: Antimicrobial activity against MLSB-resistant Staphylococcus aureus incubated for 18 hrs by serial microdilution method; format: functional
[4] = test system: Staphylococcus epidermidis; assay: Antimicrobial activity against Staphylococcus epidermidis ATCC 12228 incubated for 18 hrs by serial microdilution method; format: functional; details: ATCC 12228, 18 h
[5] = test system: Staphylococcus epidermidis; assay: Antimicrobial activity against Staphylococcus epidermidis ATCC 49134 incubated for 18 hrs by serial microdilution method; format: functional; details: ATCC 49134, 18 h
Enterococcus faecalis [6] = assay: Antimicrobial activity against Enterococcus faecalis ATCC 29212 incubated for 18 hrs by serial microdilution method; format: functional; details: ATCC 29212, 18 h
Escherichia coli = assay: Antimicrobial activity against Escherichia coli ATCC 25922 incubated for 18 hrs by serial microdilution method; format: functional; details: ATCC 25922, 18 h
[7] = Solubility of the compound in water at pH 7 by UV-vis spectrophotometric analysis; format: physicochemical
[8] = Lipophilicity, log P of the compound in octanol and water incubated for 1 h under shaking condition; format: physicochemical
Enterococcus faecalis [9] = assay: Potency index, ratio of rifampicin MIC to compound MIC for Enterococcus faecalis ATCC 29212; format: functional
Enterococcus faecalis [10] = assay: Potency index, ratio of rifaximin MIC to compound MIC for Enterococcus faecalis ATCC 29212; format: functional
Staphylococcus aureus [11] = assay: Potency index, ratio of rifampicin MIC to compound MIC for Staphylococcus aureus ATCC 6538; format: functional
Staphylococcus aureus [12] = assay: Potency index, ratio of rifaximin MIC to compound MIC for Staphylococcus aureus ATCC 6538; format: functional
[13] = test system: Staphylococcus epidermidis; assay: Potency index, ratio of rifampicin MIC to compound MIC for Staphylococcus epidermidis ATCC 12228; format: functional
[14] = test system: Staphylococcus epidermidis; assay: Potency index, ratio of rifaximin MIC to compound MIC for Staphylococcus epidermidis 12228; format: functional
[15] = test system: Staphylococcus epidermidis; assay: Potency index, ratio of rifampicin MIC to compound MIC for Staphylococcus epidermidis ATCC 49134; format: functional
[16] = test system: Staphylococcus epidermidis; assay: Potency index, ratio of rifaximin MIC to compound MIC for Staphylococcus epidermidis ATCC 49134; format: functional

Row | SMILES | MIC (Staphylococcus aureus [1]) [µg/mL] | MIC (Staphylococcus aureus [2]) [µg/mL] | MIC (Staphylococcus aureus [3]) [µg/mL] | MIC [4] [µg/mL] | MIC [5] [µg/mL] | MIC (Enterococcus faecalis [6]) [µg/mL] | MIC (Escherichia coli) [µg/mL] | solubility [7] [µg/mL] | logP at 1 h [8] | Ratio (Enterococcus faecalis [9]) | Ratio (Enterococcus faecalis [10]) | Ratio (Staphylococcus aureus [11]) | Ratio (Staphylococcus aureus [12]) | Ratio [13] | Ratio [14] | Ratio [15] | Ratio [16]
1 | CO[C@H]1/C=C/O[C@@]2(C)Oc3c(C)c(O)c4c(O)c(c(CN5CCC(N6CCC(C(=O)O)CC6)CC5)c(O)c4c3C2=O)NC(=O)/C(C)=C\C=C\[C@H](C)[C@H](O)[C@@H](C)[C@@H](O)[C@@H](C)[C@H](OC(C)=O)[C@@H]1C | 0.0078 (≈ 0.00846 µM) | 0.0078 (≈ 0.00846 µM) | 0.0078 (≈ 0.00846 µM) | 0.0078 (≈ 0.00846 µM) | 0.0078 (≈ 0.00846 µM) | 1 (≈ 1.08 µM) | > 8 | 70000 (≈ 75900 µM) | -1.34 | 8 | 8 | 8 | 8 | 8 | 8 | 8 | 8
2 | CO[C@H]1/C=C/O[C@@]2(C)Oc3c(C)c(O)c4c(O)c(c(/C=N/N5CCCCC5)c(O)c4c3C2=O)NC(=O)/C(C)=C\C=C\[C@H](C)[C@H](O)[C@@H](C)[C@@H](O)[C@@H](C)[C@H](OC(C)=O)[C@@H]1C | 0.0156 (≈ 0.0193 µM) | 0.0156 (≈ 0.0193 µM) | 0.5 (≈ 0.619 µM) | 0.0156 (≈ 0.0193 µM) | 0.0312 (≈ 0.0387 µM) | 0.5 (≈ 0.619 µM) | > 8 | < 300 | 3.27 |  |  |  |  |  |  |  | 
3 | CO[C@H]1/C=C/O[C@@]2(C)Oc3c(C)c(O)c4c(O)c(c(CN5CCN(c6ncccn6)CC5)c(O)c4c3C2=O)NC(=O)/C(C)=C\C=C\[C@H](C)[C@H](O)[C@@H](C)[C@@H](O)[C@@H](C)[C@H](OC(C)=O)[C@@H]1C | 1 (≈ 1.14 µM) | 1 (≈ 1.14 µM) | 2 (≈ 2.29 µM) | 0.25 (≈ 0.286 µM) | 0.25 (≈ 0.286 µM) | > 8 | > 8 | 50 (≈ 57.2 µM) | 2.02 |  |  |  |  |  |  |  | 
4 | CO[C@H]1/C=C/O[C@@]2(C)Oc3c(C)c(O)c4c(O)c(c(/C=N/NC5=NCCN5)c(O)c4c3C2=O)NC(=O)/C(C)=C\C=C\[C@H](C)[C@H](O)[C@@H](C)[C@@H](O)[C@@H](C)[C@H](OC(C)=O)[C@@H]1C | 0.0156 (≈ 0.0193 µM) | 0.0078 (≈ 0.00965 µM) | 0.0078 (≈ 0.00965 µM) | 0.0078 (≈ 0.00965 µM) | 0.0078 (≈ 0.00965 µM) | 1 (≈ 1.24 µM) | > 8 | 4250 (≈ 5260 µM) | 1.33 | 8 | 8 | 8 | 8 | 8 | 8 | 8 | 8
5 | CO[C@H]1/C=C/O[C@@]2(C)Oc3c(C)c(O)c4c(O)c(c(/C=N/Nc5ccccc5)c(O)c4c3C2=O)NC(=O)/C(C)=C\C=C\[C@H](C)[C@H](O)[C@@H](C)[C@@H](O)[C@@H](C)[C@H](OC(C)=O)[C@@H]1C | 0.5 (≈ 0.613 µM) | 0.5 (≈ 0.613 µM) | 1 (≈ 1.23 µM) | 0.5 (≈ 0.613 µM) | 0.25 (≈ 0.306 µM) | > 8 | > 8 | < 50 | 2.75 |  |  |  |  |  |  |  | 
6 | CO[C@H]1/C=C/O[C@@]2(C)Oc3c(C)c(O)c4c(O)c(c(/C=N/NCc5ccccc5)c(O)c4c3C2=O)NC(=O)/C(C)=C\C=C\[C@H](C)[C@H](O)[C@@H](C)[C@@H](O)[C@@H](C)[C@H](OC(C)=O)[C@@H]1C | 1 (≈ 1.2 µM) | 0.5 (≈ 0.602 µM) | 0.5 (≈ 0.602 µM) | 0.25 (≈ 0.301 µM) | 0.25 (≈ 0.301 µM) | > 8 | > 8 | < 50 | 2.34 |  |  |  |  |  |  |  | 
7 | CCS(=O)(=O)N1CCN(Cc2c3c(O)c4c(O)c(C)c5c(c4c2O)C(=O)[C@@](C)(O/C=C/[C@H](OC)[C@@H](C)[C@@H](OC(C)=O)[C@H](C)[C@H](O)[C@H](C)[C@@H](O)[C@@H](C)/C=C/C=C(/C)C(=O)N3)O5)CC1 | 0.5 (≈ 0.563 µM) | 0.5 (≈ 0.563 µM) | 0.5 (≈ 0.563 µM) | 0.25 (≈ 0.282 µM) | 0.25 (≈ 0.282 µM) | > 8 | > 8 | 1730 (≈ 1950 µM) | 1.41 |  |  |  |  |  |  |  | 
8 | CO[C@H]1/C=C/O[C@@]2(C)Oc3c(C)c(O)c4c(O)c(c(/C=N/NC5CCCCC5)c(O)c4c3C2=O)NC(=O)/C(C)=C\C=C\[C@H](C)[C@H](O)[C@@H](C)[C@@H](O)[C@@H](C)[C@H](OC(C)=O)[C@@H]1C | 0.5 (≈ 0.608 µM) | 0.5 (≈ 0.608 µM) | 0.5 (≈ 0.608 µM) | 0.25 (≈ 0.304 µM) | 0.25 (≈ 0.304 µM) | 1 (≈ 1.22 µM) | > 8 | < 50 | 2.1 |  |  |  |  |  |  |  | 
9 | CO[C@H]1/C=C/O[C@@]2(C)Oc3c(C)c(O)c4c(O)c(c(/C=N/Nc5ccnc6cc(Cl)ccc56)c(O)c4c3C2=O)NC(=O)/C(C)=C\C=C\[C@H](C)[C@H](O)[C@@H](C)[C@@H](O)[C@@H](C)[C@H](OC(C)=O)[C@@H]1C | 0.25 (≈ 0.277 µM) | 0.25 (≈ 0.277 µM) | 0.125 (≈ 0.139 µM) | 0.125 (≈ 0.139 µM) | 0.125 (≈ 0.139 µM) | 8 (≈ 8.87 µM) | > 8 | < 300 | 2.1 |  |  |  |  |  |  |  | 
10 | CO[C@H]1/C=C/O[C@@]2(C)Oc3c(C)c(O)c4c(O)c(c(/C=N/N5CCCCCC5)c(O)c4c3C2=O)NC(=O)/C(C)=C\C=C\[C@H](C)[C@H](O)[C@@H](C)[C@@H](O)[C@@H](C)[C@H](OC(C)=O)[C@@H]1C | 0.0625 (≈ 0.076 µM) | 0.0625 (≈ 0.076 µM) | 0.5 (≈ 0.608 µM) | 0.0312 (≈ 0.038 µM) | 0.0312 (≈ 0.038 µM) | 0.5 (≈ 0.608 µM) | > 8 | < 300 | 3.43 |  |  |  |  |  |  |  | 
11 | CO[C@H]1/C=C/O[C@@]2(C)Oc3c(C)c(O)c4c(O)c(c(/C=N/N5CCCC5)c(O)c4c3C2=O)NC(=O)/C(C)=C\C=C\[C@H](C)[C@H](O)[C@@H](C)[C@@H](O)[C@@H](C)[C@H](OC(C)=O)[C@@H]1C | 0.25 (≈ 0.315 µM) | 0.25 (≈ 0.315 µM) | 0.5 (≈ 0.63 µM) | 0.25 (≈ 0.315 µM) | 0.25 (≈ 0.315 µM) | 4 (≈ 5.04 µM) | > 8 | < 300 | 3.13 |  |  |  |  |  |  |  | 
12 | CO[C@H]1/C=C/O[C@@]2(C)Oc3c(C)c(O)c4c(O)c(c(CN5CCC(NS(C)(=O)=O)CC5)c(O)c4c3C2=O)NC(=O)/C(C)=C\C=C\[C@H](C)[C@H](O)[C@@H](C)[C@@H](O)[C@@H](C)[C@H](OC(C)=O)[C@@H]1C | 2 (≈ 2.25 µM) | 4 (≈ 4.5 µM) | 2 (≈ 2.25 µM) | 0.5 (≈ 0.563 µM) | 0.5 (≈ 0.563 µM) | > 8 | > 8 | 36400 (≈ 41000 µM) | 0.31 |  |  |  |  |  |  |  | 
13 | CO[C@H]1/C=C/O[C@@]2(C)Oc3c(C)c(O)c4c(O)c(c(/C=N/NC(C)(C)C)c(O)c4c3C2=O)NC(=O)/C(C)=C\C=C\[C@H](C)[C@H](O)[C@@H](C)[C@@H](O)[C@@H](C)[C@H](OC(C)=O)[C@@H]1C | 1 (≈ 1.26 µM) | 1 (≈ 1.26 µM) | 2 (≈ 2.51 µM) | 1 (≈ 1.26 µM) | 0.5 (≈ 0.628 µM) | 8 (≈ 10.1 µM) | > 8 | < 50 | 2.43 |  |  |  |  |  |  |  | 
14 | CO[C@H]1/C=C/O[C@@]2(C)Oc3c(C)c(O)c4c(O)c(c(/C=N/N5CCOCC5)c(O)c4c3C2=O)NC(=O)/C(C)=C\C=C\[C@H](C)[C@H](O)[C@@H](C)[C@@H](O)[C@@H](C)[C@H](OC(C)=O)[C@@H]1C | 0.5 (≈ 0.617 µM) | 1 (≈ 1.23 µM) | 1 (≈ 1.23 µM) | 0.25 (≈ 0.309 µM) | 0.25 (≈ 0.309 µM) | > 8 | > 8 | < 50 | 2.79 |  |  |  |  |  |  |  | 
15 | CO[C@H]1/C=C/O[C@@]2(C)Oc3c(C)c(O)c4c(O)c(c(CN5CCN(c6ncccc6C(F)(F)F)CC5)c(O)c4c3C2=O)NC(=O)/C(C)=C\C=C\[C@H](C)[C@H](O)[C@@H](C)[C@@H](O)[C@@H](C)[C@H](OC(C)=O)[C@@H]1C | 4 (≈ 4.25 µM) | 2 (≈ 2.13 µM) | 2 (≈ 2.13 µM) | 0.5 (≈ 0.531 µM) | 0.5 (≈ 0.531 µM) | > 8 | > 8 | < 50 | 2.09 |  |  |  |  |  |  |  | 
